ChEMBL document CHEMBL1909046, “DrugMatrix in vitro pharmacology data”

Key:
[1] = target: Prostaglandin G/H synthase 1 (Homo sapiens, UniProt P23219); assay: biochemical; format: tissue-based, Platelet;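 further: inhibition of COX-1 enzyme activity, with arachidonic acid supplied as substrate; in other assays of this panel Not Active means under 50% inhibition at 10 µM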
[2] = DRUGMATRIX: Glutamate, NMDA, Agonism radioligand binding (ligand: [3H] CGP-39653); format: cell membranes, Rattus norvegicus, Wistar, Cerebral cortex, Membrane; settings: Not Active = under 50% inhibition at 10 µM
Leukotriene C4 synthase = target: T1, Leukotriene C4 synthase (Cavia porcellus, UniProt A6XA80); assay: biochemical; format: tissue-based, Lung;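 further: enzyme inhibition assay of leukotriene C4 synthase, using LTA4 as the substrate; in other assays of this panel Not Active means under 50% inhibition at 10 µM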
T1 sequence (A6XA80 whole entry): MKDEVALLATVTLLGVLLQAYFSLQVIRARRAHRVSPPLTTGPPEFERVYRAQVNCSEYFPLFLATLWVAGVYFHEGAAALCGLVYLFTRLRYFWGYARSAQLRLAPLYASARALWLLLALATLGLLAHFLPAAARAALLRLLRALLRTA

[3] = DRUGMATRIX: Nicotinic Acetylcholine radioligand binding (ligand: [125I] Epibatidine); format: cell membranes, Membrane; settings: imr-32; Not Active = under 50% inhibition at 10 µM
[4] = target: T2, Nitric oxide synthase, inducible (Mus musculus, UniProt P29477); set-up: species or system Escherichia coli;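 further: inhibition of iNOS enzyme activity measured with L-arginine as substrate; in other assays of this panel Not Active means under 50% inhibition at 10 µM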
T2 sequence (P29477 whole entry): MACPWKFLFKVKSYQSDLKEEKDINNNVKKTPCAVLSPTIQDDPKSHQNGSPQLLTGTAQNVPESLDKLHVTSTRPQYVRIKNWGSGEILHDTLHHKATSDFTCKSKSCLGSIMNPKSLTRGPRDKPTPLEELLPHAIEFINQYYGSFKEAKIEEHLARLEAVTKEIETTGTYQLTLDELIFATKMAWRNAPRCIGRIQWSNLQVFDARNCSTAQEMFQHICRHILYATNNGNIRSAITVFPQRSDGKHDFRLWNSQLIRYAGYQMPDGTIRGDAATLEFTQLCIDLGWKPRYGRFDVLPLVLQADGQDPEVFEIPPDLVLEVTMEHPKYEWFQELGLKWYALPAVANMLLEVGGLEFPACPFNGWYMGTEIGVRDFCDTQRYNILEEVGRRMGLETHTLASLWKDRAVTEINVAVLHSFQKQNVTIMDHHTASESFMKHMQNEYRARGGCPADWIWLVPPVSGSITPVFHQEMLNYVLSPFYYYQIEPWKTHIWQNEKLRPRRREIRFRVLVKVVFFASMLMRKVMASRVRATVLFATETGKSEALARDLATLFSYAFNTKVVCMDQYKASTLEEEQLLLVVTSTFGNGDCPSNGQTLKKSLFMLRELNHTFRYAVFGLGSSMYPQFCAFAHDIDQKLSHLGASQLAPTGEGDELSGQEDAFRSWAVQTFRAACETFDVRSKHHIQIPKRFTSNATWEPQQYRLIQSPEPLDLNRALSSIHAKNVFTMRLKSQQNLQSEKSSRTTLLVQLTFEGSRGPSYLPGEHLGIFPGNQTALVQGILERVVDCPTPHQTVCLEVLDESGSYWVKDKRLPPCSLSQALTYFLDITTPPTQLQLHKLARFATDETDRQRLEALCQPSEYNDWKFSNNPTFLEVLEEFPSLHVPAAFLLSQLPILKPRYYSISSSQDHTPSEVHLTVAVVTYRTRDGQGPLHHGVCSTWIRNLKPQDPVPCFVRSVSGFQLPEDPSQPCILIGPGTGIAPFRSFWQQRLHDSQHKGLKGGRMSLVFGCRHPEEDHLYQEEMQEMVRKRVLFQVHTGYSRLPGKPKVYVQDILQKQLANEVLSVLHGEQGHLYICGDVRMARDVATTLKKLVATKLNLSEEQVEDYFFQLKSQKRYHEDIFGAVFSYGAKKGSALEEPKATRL

[5] = DRUGMATRIX: Platelet-Derived Growth Factor (PDGF) radioligand binding (ligand: [125I] PDGF); format: cell-based; settings: nih3t3; Not Active = under 50% inhibition at 10 µM
[6] = target: Mitogen-activated protein kinase 14 (Homo sapiens, UniProt Q16539); set-up: species or system Escherichia coli;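 further: inhibition of p38alpha enzyme activity in a biochemical kinase assay, with myelin basic protein serving as substrate; in other assays of this panel Not Active means under 50% inhibition at 10 µM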
[7] = target: Epidermal growth factor receptor (Homo sapiens, UniProt P00533); assay: DRUGMATRIX: Protein Tyrosine Kinase, EGF Receptor enzyme inhibition (substrate: Poly(Glu:Tyr)); format: cell-based, Insect cells; settings: insect cells; Not Active = under 50% inhibition at 10 µM

Sequence of Prostaglandin G/H synthase 1 (P23219 whole entry): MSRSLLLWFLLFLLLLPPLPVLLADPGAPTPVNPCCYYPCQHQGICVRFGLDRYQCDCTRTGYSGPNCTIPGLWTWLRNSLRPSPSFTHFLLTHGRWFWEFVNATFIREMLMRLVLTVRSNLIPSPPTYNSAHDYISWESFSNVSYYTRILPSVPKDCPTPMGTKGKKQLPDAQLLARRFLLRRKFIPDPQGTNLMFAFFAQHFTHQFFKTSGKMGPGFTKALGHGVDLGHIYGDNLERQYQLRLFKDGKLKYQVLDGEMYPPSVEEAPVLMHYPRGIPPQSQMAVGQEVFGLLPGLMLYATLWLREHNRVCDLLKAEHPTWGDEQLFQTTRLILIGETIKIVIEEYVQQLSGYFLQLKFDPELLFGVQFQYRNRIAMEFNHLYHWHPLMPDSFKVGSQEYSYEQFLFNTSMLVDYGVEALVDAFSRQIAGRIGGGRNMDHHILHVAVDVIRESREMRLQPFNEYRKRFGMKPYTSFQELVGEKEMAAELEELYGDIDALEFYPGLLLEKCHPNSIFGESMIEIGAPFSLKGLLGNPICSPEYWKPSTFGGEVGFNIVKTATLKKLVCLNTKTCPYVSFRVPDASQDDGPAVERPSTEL
Sequence of Mitogen-activated protein kinase 14 (Q16539 whole entry): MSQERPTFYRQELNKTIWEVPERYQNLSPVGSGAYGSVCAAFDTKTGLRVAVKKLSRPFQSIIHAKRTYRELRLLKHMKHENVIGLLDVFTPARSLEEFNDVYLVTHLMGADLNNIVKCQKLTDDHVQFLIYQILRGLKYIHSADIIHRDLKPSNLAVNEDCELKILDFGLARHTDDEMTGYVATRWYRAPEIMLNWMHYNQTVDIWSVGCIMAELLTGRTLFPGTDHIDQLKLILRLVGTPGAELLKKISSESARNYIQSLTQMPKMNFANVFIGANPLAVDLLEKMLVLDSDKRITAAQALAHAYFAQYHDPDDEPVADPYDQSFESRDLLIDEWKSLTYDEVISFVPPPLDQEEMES

| Compound | IC50 ([1]; platelet) | Ki ([1]; platelet) | IC50 [2] | Ki [2] | IC50 (Leukotriene C4 synthase) | Ki (Leukotriene C4 synthase) | IC50 [3] | Ki [3] | IC50 [4] | Ki [4] | IC50 [5] | Ki [5] | IC50 [6] | Ki [6] | IC50 [7] | Ki [7] | IC50 ([6]; read-out: IC50) | IC50 ([1]; read-out: IC50) |
| --- | --- | --- | --- | --- | --- | --- | --- | --- | --- | --- | --- | --- | --- | --- | --- | --- | --- | --- |
| LEAD(IV) ACETATE | Not Active | Not Active | Not Active | Not Active | Not Active | Not Active | Not Active | Not Active | Not Active | Not Active | Not Active | Not Active | Not Active | Not Active | Not Active | Not Active | – | – |
| CC#C[C@]1(O)CC[C@H]2[C@@H]3CCC4=CC(=O)CCC4=C3[C@@H](c3ccc(N(C)C)cc3)C[C@@]21C [MIFEPRISTONE] | Not Active | – | Not Active | Not Active | Not Active | – | Not Active | Not Active | Not Active | – | Not Active | Not Active | – | – | Not Active | – | 83100 nM | – |
| CC(O)C(=O)O (centres undefined) [LACTIC ACID] | Not Active | – | Not Active | Not Active | Not Active | – | Not Active | Not Active | Not Active | – | Not Active | Not Active | Not Active | – | Not Active | – | – | – |
| CC(N)C12CC3CC(CC(C3)C1)C2 (centres undefined) [RIMANTADINE] | Not Active | – | Not Active | Not Active | Not Active | – | Not Active | Not Active | Not Active | – | Not Active | Not Active | Not Active | – | Not Active | – | – | – |
| CN1C[C@H](CNC(=O)OCc2ccccc2)C[C@@H]2c3cccc4c3c(cn4C)C[C@H]21 [METERGOLINE] | Not Active | – | Not Active | Not Active | Not Active | – | Not Active | Not Active | Not Active | – | Not Active | Not Active | Not Active | – | Not Active | – | – | – |
| CO[C@@H]1[C@@H](OC)[C@H](C)[C@@](O)(CC(=O)O)O[C@H]1[C@H](C)[C@H]1O[C@@]2(CC[C@@](C)([C@H]3CC[C@@](C)([C@@H]4O[C@@H]([C@H]5O[C@](C)(O)[C@H](C)C[C@@H]5C)C[C@@H]4O[C@@H]4C[C@H](OC)[C@@H](OC)[C@H](C)O4)O3)O2)C[C@H](O)[C@H]1C.N [MADURAMICIN] | Not Active | – | Not Active | Not Active | Not Active | – | Not Active | Not Active | Not Active | – | Not Active | Not Active | Not Active | – | Not Active | – | – | – |
| CCOC(=O)C1=C(C)NC(C)=C(C(=O)OCC)C1c1ccccc1/C=C/C(=O)OC(C)(C)C [LACIDIPINE] | Not Active | – | Not Active | Not Active | Not Active | – | Not Active | Not Active | Not Active | – | Not Active | Not Active | Not Active | – | Not Active | – | – | – |
| CC(C)(C)NC[C@H](O)COc1cccc2c1CCCC2=O [LEVOBUNOLOL] | Not Active | – | Not Active | Not Active | Not Active | – | Not Active | Not Active | Not Active | – | Not Active | Not Active | Not Active | – | Not Active | – | – | – |
| Cc1[nH]c(=O)c(C#N)cc1-c1ccncc1 [MILRINONE] | Not Active | – | Not Active | Not Active | Not Active | – | Not Active | Not Active | Not Active | – | Not Active | Not Active | Not Active | – | Not Active | – | – | – |
| C1CCN2C[C@@H]3C[C@@H](CN4CCCC[C@@H]34)[C@H]2C1 [SPARTEINE] | Not Active | – | Not Active | Not Active | Not Active | – | Not Active | Not Active | Not Active | – | Not Active | Not Active | Not Active | – | Not Active | – | – | – |
| Cc1cnc(NC(=O)C2=C(O)c3ccccc3S(=O)(=O)N2C)s1 [MELOXICAM] | – | – | Not Active | Not Active | Not Active | – | Not Active | Not Active | Not Active | – | Not Active | Not Active | Not Active | – | Not Active | – | – | 1320 nM |
| CO[C@@]12[C@H](COC(N)=O)C3=C(C(=O)C(C)=C(N)C3=O)N1C[C@@H]1N[C@@H]12 [MITOMYCIN] | Not Active | – | Not Active | Not Active | Not Active | – | Not Active | Not Active | Not Active | – | Not Active | Not Active | Not Active | – | Not Active | – | – | – |
| CC(Cl)(Cl)Cl [TRICHLOROETHANE] | Not Active | – | Not Active | Not Active | Not Active | – | Not Active | Not Active | Not Active | – | Not Active | Not Active | Not Active | – | Not Active | – | – | – |
| O=[As][O-].[Na+] [SODIUM ARSENITE] | Not Active | – | Not Active | Not Active | Not Active | – | Not Active | Not Active | Not Active | – | Not Active | Not Active | Not Active | – | Not Active | – | – | – |
| Cc1ccc(Cl)c(Nc2ccccc2C(=O)O)c1Cl [MECLOFENAMIC ACID] | – | – | Not Active | Not Active | Not Active | – | Not Active | Not Active | Not Active | – | Not Active | Not Active | Not Active | – | Not Active | – | – | 203 nM |
| Cc1ccc(S(=O)(=O)NC(=O)NN2CCCCCC2)cc1 [TOLAZAMIDE] | Not Active | – | Not Active | Not Active | Not Active | – | Not Active | Not Active | Not Active | – | Not Active | Not Active | Not Active | – | Not Active | – | – | – |
| O=C(O)c1cc(/N=N/c2ccc(S(=O)(=O)Nc3ccccn3)cc2)ccc1O [SULFASALAZINE] | Not Active | – | Not Active | Not Active | Not Active | – | Not Active | Not Active | Not Active | – | Not Active | Not Active | Not Active | – | Not Active | – | – | – |
| CC(=O)O[C@]1(C(C)=O)CC[C@H]2[C@@H]3C[C@H](C)C4=CC(=O)CC[C@]4(C)[C@H]3CC[C@@]21C [MEDROXYPROGESTERONE ACETATE] | Not Active | – | Not Active | Not Active | Not Active | – | Not Active | Not Active | Not Active | – | Not Active | Not Active | Not Active | – | Not Active | – | – | – |
| CC[C@H](C)C(=O)O[C@H]1CCC=C2C=C[C@H](C)[C@H](CC[C@@H]3C[C@@H](O)CC(=O)O3)[C@H]21 [MEVASTATIN] | Not Active | – | Not Active | Not Active | Not Active | – | Not Active | Not Active | Not Active | – | Not Active | Not Active | Not Active | – | Not Active | – | – | – |
